Source: patent publication US20240409585A1, “MACROCYCLIC IMMUNOMODULATORS” (priority 2021, published 2024)
Numbered stars: 1 amine (or outer) side, 2 acyl side, 3 side chain; on linkers, the order of the positions; unused ones are H or OH. Bridge positions count the residues as written; N and C are the ends. Square brackets hold non-standard residues; d marks the D form. Peptide text beside a SMILES is read from it. * marks the point of attachment. ξ: configuration not given here. Phe(4-COOH) = N[C@@H](Cc1ccc(C(=O)O)cc1)C(=O)O; Trp(7-Me) = Cc1cccc2c(C[C@H](N)C(=O)O)c[nH]c12; X23 = O=C([C@H](Cc1cc2ccccc2cn1)N[*:1])[*:2]; Bip = N[C@@H](Cc1ccc(-c2ccccc2)cc1)C(=O)O; NMeW = CN[C@@H](Cc1c[nH]c2ccccc12)C(=O)O; Phe(4-CN) = N#Cc1ccc(C[C@H](N)C(=O)O)cc1; Phe(2-CN) = N#Cc1ccccc1C[C@H](N)C(=O)O; Phe(3-Me) = Cc1cccc(C[C@H](N)C(=O)O)c1; Cyclopropanecarbonyl = O=C(C1CC1)*; Val(3-OH) = CC(C)(O)[C@H](N)C(=O)O; Cha = N[C@@H](CC1CCCCC1)C(=O)O; Cit = NC(=O)NCCC[C@H](N)C(=O)O; Ile(3ξ) = CCC(C)[C@H](N)C(=O)O; Thr(3ξ) = CC(O)[C@H](N)C(=O)O; ξCha = NC(CC1CCCCC1)C(=O)O; Carboxymethyl = O=C(O)C*; NMeA = CN[C@@H](C)C(=O)O; Orn = NCCC[C@H](N)C(=O)O; Dab = NCC[C@H](N)C(=O)O

Target: T1, PE-labeled human PD-L1-Ig binding to Jurkat cell line over-expressing human PD-1 (Jurkat-PD-1) (Homo sapiens, UniProt Q15116)
T1 construct: expressed in transfected cells; host or cells: Jurkat
Assay: Jurkat-PD-1 Cell Binding High-Content Screening Assay (CBA): Method 1
Settings: Jurkat-hPD-1 cells, PE-labeled PD-L1-Ig 20 nM final; read-out: Jurkat HPDL1 PD1 IC50 (uM) (Method 1)

T1 sequence (Q15116 25-288): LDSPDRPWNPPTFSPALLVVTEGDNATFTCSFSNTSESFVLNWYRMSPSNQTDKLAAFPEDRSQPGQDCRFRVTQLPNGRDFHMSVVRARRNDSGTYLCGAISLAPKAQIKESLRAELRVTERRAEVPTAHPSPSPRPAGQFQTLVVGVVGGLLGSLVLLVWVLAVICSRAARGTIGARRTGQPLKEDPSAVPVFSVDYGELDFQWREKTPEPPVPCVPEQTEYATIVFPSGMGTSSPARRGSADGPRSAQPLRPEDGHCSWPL

Row | IC50 [µM] | Compound
1 | 0.1 | CC[C@H](C)[C@@H]1NC(=O)[C@H](Cc2ccc(-c3ccccc3)cc2)NC(=O)[C@H](C(C)(C)O)NC(=O)[C@H](Cc2cccc(C)c2)NC(=O)[C@H](CC(=O)O)NC(=O)[C@H](Cc2ccc(O)cc2)NC(=O)[C@H](CC(N)=O)NC(=O)CSC[C@@H](C(=O)N[C@H](C)C(N)=O)NC(=O)[C@H](CCC(=O)O)NC(=O)[C@H](C(C)C)NC(=O)[C@H](CC2CCCCC2)NC(=O)[C@H](CCN)NC(=O)[C@@H](CC(C)C)NC(=O)[C@H](C)N(C)C1=O [Compound 1698] ({CH2CO}-NYD[Phe(3-Me)][Val(3-OH)][Bip]I[NMeA][dL][Dab][Cha]VEC[dA]-NH2; thioether N-14)
2 | 0.07 | CC[C@H](C)[C@@H]1NC(=O)[C@H](Cc2ccc(-c3ccccc3)cc2)NC(=O)[C@H](C(C)C)NC(=O)[C@H](Cc2c[nH]c3ccccc23)NC(=O)[C@H](CC(=O)O)NC(=O)[C@H](Cc2ccc(O)cc2)NC(=O)[C@H](CC(N)=O)NC(=O)CSC[C@@H](C(=O)N[C@@H](C)C(N)=O)NC(=O)[C@H]([C@@H](C)O)NC(=O)[C@H](C(C)C)NC(=O)[C@H](CC(C)C)NC(=O)[C@H](CCCNC(=N)N)NC(=O)[C@@H](CC(C)C)NC(=O)[C@H](C)N(C)C1=O [Compound 1490] ({CH2CO}-NYDWV[Bip]I[NMeA][dL]RLVTCA-NH2; thioether N-14)
3 | 0.03 | CC(C)C[C@@H]1NC(=O)[C@H](CCCN)NC(=O)[C@@H](CC(C)C)NC(=O)[C@H](C)N(C)C(=O)[C@H](CCCNC(=N)N)NC(=O)[C@H](Cc2ccc(-c3ccccc3)cc2)NC(=O)[C@H](C(C)C)NC(=O)[C@H](Cc2c[nH]c3ccccc23)NC(=O)[C@H](CC(=O)O)NC(=O)[C@H](Cc2ccc(C(=O)O)cc2)NC(=O)[C@H](Cc2ccccc2)NC(=O)CSC[C@@H](C(=O)N[C@@H](C)C(N)=O)NC(=O)[C@H]([C@@H](C)O)NC(=O)[C@H](C(C)C)NC1=O [Compound 1156] ({CH2CO}-F[Phe(4-COOH)]DWV[Bip]R[NMeA][dL][Orn]LVTCA-NH2; thioether N-14)
4 | 0.13 | CC(C)C[C@@H]1NC(=O)[C@H](CCN)NC(=O)[C@@H](CC(C)C)NC(=O)[C@H](Cc2c[nH]c3ccccc23)N(C)C(=O)[C@H](C(C)C)NC(=O)[C@H](Cc2ccc(-c3ccccc3)cc2)NC(=O)[C@H](C(C)C)NC(=O)[C@H](Cc2c[nH]c3ccccc23)NC(=O)[C@H](CC(=O)O)NC(=O)[C@H](Cc2ccc(O)cc2)NC(=O)[C@H](CC(N)=O)NC(=O)CSC[C@@H](C(=O)N[C@@H](C)C(N)=O)NC(=O)[C@H]([C@@H](C)O)NC(=O)[C@H](C(C)C)NC1=O [Compound 1368] ({CH2CO}-NYDWV[Bip]V[NMeW][dL][Dab]LVTCA-NH2; thioether N-14)
5 | 0.07 | CC(C)C[C@@H]1NC(=O)[C@H](CCCCN)NC(=O)[C@@H](CC(C)C)NC(=O)[C@H](C)N(C)C(=O)[C@H](Cc2cnc[nH]2)NC(=O)[C@H](Cc2ccc(-c3ccccc3)cc2)NC(=O)[C@H](C(C)C)NC(=O)[C@H](Cc2c[nH]c3ccccc23)NC(=O)[C@H](CC(=O)O)NC(=O)[C@H](Cc2ccc(O)cc2)NC(=O)[C@H](CC(N)=O)NC(=O)CSC[C@@H](C(=O)NCC(N)=O)NC(=O)[C@H]([C@@H](C)O)NC(=O)[C@H](C(C)C)NC1=O [Compound 1484] ({CH2CO}-NYDWV[Bip]H[NMeA][dL]KLVTCG-NH2; thioether N-14)
6 | 0.04 | CCC(C)[C@@H]1NC(=O)[C@H](Cc2ccc(-c3ccccc3)cc2)NC(=O)[C@H](CC(C)C)NC(=O)[C@H](Cc2c[nH]c3ccccc23)NC(=O)[C@H](CC(=O)O)NC(=O)[C@H](Cc2ccc(OCC(=O)O)cc2)NC(=O)[C@H](C(C)O)NC(=O)CSC[C@@H](C(=O)N[C@@H](CC(N)=O)C(=O)O)NC(=O)[C@H](CO)NC(=O)[C@H](C(C)C)NC(=O)[C@H](CC(C)C)NC(=O)[C@H](CCN)NC(=O)[C@@H](CC(C)C)NC(=O)[C@H](C)N(C)C1=O (stereo partly drawn) [Compound 2220] ({CH2CO}-[Thr(3ξ)]Y(Carboxymethyl)DWL[Bip][Ile(3ξ)][NMeA][dL][Dab]LVSCN-OH; thioether N-14)
7 | 0.03 | CC(C)C[C@@H]1NC(=O)[C@H](CCN)NC(=O)[C@@H](CC(C)C)NC(=O)[C@H](C)N(C)C(=O)[C@H](CCCN)NC(=O)[C@H](Cc2ccc(-c3ccccc3)cc2)NC(=O)[C@H](C(C)C)NC(=O)[C@H](Cc2c[nH]c3ccccc23)NC(=O)[C@H](CC(=O)O)NC(=O)[C@H](Cc2ccc(OCC(=O)O)cc2)NC(=O)[C@H](CC(N)=O)NC(=O)CSC[C@@H](C(=O)N[C@@H](C)C(N)=O)NC(=O)[C@H]([C@@H](C)O)NC(=O)[C@H](C(C)C)NC1=O [Compound 1387] ({CH2CO}-NY(Carboxymethyl)DWV[Bip][Orn][NMeA][dL][Dab]LVTCA-NH2; thioether N-14)
8 | 0.16 | Cc1cccc2c(C[C@@H]3NC(=O)[C@H](CC(=O)O)NC(=O)[C@H](Cc4ccc(O)cc4)NC(=O)[C@H](Cc4ccccc4)NC(=O)CSC[C@@H](C(=O)N[C@@H](C)C(N)=O)NC(=O)[C@H](CO)NC(=O)[C@H](C(C)C)NC(=O)[C@H](CC(C)C)NC(=O)[C@H](CC(N)=O)NC(=O)[C@@H](C)NC(=O)[C@H](C)N(C)C(=O)[C@H](C(C)C)NC(=O)[C@H](Cc4ccc(-c5ccccc5)cc4)NC(=O)[C@H](CC(C)C)NC3=O)c[nH]c12 [Compound 1796] ({CH2CO}-FYD[Trp(7-Me)]L[Bip]V[NMeA][dA]NLVSCA-NH2; thioether N-14)
9 | 0.09 | CC(C)C[C@@H]1NC(=O)[C@H](Cc2c[nH]c3ccccc23)NC(=O)[C@H](CC(=O)O)NC(=O)[C@H](Cc2ccc(OCC(=O)O)cc2)NC(=O)[C@H](Cc2ccccc2)NC(=O)CSC[C@@H](C(N)=O)NC(=O)[C@H](CO)NC(=O)[C@H](C(C)C)NC(=O)[C@H](CC(C)C)NC(=O)[C@H](CC(N)=O)NC(=O)[C@@H](CC(C)C)NC(=O)[C@H](C)N(C)C(=O)[C@H](CCC(=O)O)NC(=O)[C@H](Cc2ccc(-c3ccccc3)cc2)NC1=O [Compound 1628] ({CH2CO}-FY(Carboxymethyl)DWL[Bip]E[NMeA][dL]NLVSC-NH2; thioether N-14)
10 | 0.29 | CCC(C)[C@@H]1NC(=O)[C@H](Cc2ccc(-c3ccccc3)cc2)NC(=O)[C@H](Cc2cccc(C)c2)NC(=O)[C@H](Cc2c[nH]c3ccccc23)NC(=O)[C@H](CC(=O)O)NC(=O)[C@H](Cc2ccc(OCC(=O)O)cc2)NC(=O)[C@H](C(C)O)NC(=O)CSC[C@@H](C(=O)N[C@@H](CC(N)=O)C(=O)O)NC(=O)[C@H](CO)NC(=O)[C@H](C(C)C)NC(=O)[C@H](CC(C)C)NC(=O)[C@H](CCN)NC(=O)[C@@H](CC(C)C)NC(=O)[C@H](C)N(C)C1=O (stereo partly drawn) [Compound 2222] ({CH2CO}-[Thr(3ξ)]Y(Carboxymethyl)DW[Phe(3-Me)][Bip][Ile(3ξ)][NMeA][dL][Dab]LVSCN-OH; thioether N-14)
11 | 0.23 | CC(C)C[C@@H]1NC(=O)[C@H](Cc2c[nH]c3ccccc23)NC(=O)[C@H](CC(=O)O)NC(=O)[C@H](Cc2ccccc2C#N)NC(=O)[C@H](Cc2ccccc2)NC(=O)CSC[C@@H](C(=O)N[C@@H](C)C(N)=O)NC(=O)[C@H](CO)NC(=O)[C@H](C(C)C)NC(=O)[C@H](CC(C)C)NC(=O)[C@H](CC(N)=O)NC(=O)[C@@H](C)NC(=O)[C@H](C)N(C)C(=O)[C@H](C(C)C)NC(=O)[C@H](Cc2ccc(-c3ccccc3)cc2)NC1=O [Compound 1806] ({CH2CO}-F[Phe(2-CN)]DWL[Bip]V[NMeA][dA]NLVSCA-NH2; thioether N-14)
12 | 0.02 | Cc1cccc(C[C@@H]2NC(=O)[C@H](CC(=O)O)NC(=O)[C@H](Cc3ccc(OCC(=O)O)cc3)NC(=O)[C@H](CCCNC(=O)C3CC3)NC(=O)CSC[C@@H](C(=O)N[C@@H](CO)C(N)=O)NC(=O)[C@H](CO)NC(=O)[C@H](C(C)O)NC(=O)C(CC3CCCCC3)NC(=O)[C@H](CCCNC(=N)N)NC(=O)[C@@H](CC(C)C)NC(=O)[C@H](C)N(C)C(=O)[C@H](CCCNC(N)=O)NC(=O)[C@H](Cc3ccc(-c4ccccc4)cc3)NC(=O)[C@H](C(C)C)NC2=O)c1 (stereo partly drawn) [Compound 2113] ({CH2CO}-[Orn](Cyclopropanecarbonyl)Y(Carboxymethyl)D[Phe(3-Me)]V[Bip][Cit][NMeA][dL]R[ξCha][Thr(3ξ)]SCS-NH2; thioether N-14)
13 | 0.05 | CC(C)C[C@@H]1NC(=O)[C@H](CCN)NC(=O)[C@@H](CC(C)C)NC(=O)[C@H](C)N(C)C(=O)[C@H](CCCNC(=N)N)NC(=O)[C@H](Cc2ccc(-c3ccccc3)cc2)NC(=O)[C@H](C(C)C)NC(=O)[C@H](Cc2c[nH]c3ccccc23)NC(=O)[C@H](CC(=O)O)NC(=O)[C@H](Cc2ccc(C#N)cc2)NC(=O)[C@H](CC(N)=O)NC(=O)CSC[C@@H](C(=O)N[C@@H](C)C(N)=O)NC(=O)[C@H]([C@@H](C)O)NC(=O)[C@H](C(C)C)NC1=O [Compound 1306] ({CH2CO}-N[Phe(4-CN)]DWV[Bip]R[NMeA][dL][Dab]LVTCA-NH2; thioether N-14)
14 | 0.07 | CC(C)C[C@@H]1NC(=O)[C@H](CCCN)NC(=O)[C@@H](CC(C)C)NC(=O)[C@H](C)N(C)C(=O)[C@H](CCCNC(=N)N)NC(=O)[C@H](Cc2ccc(-c3ccccc3)cc2)NC(=O)[C@H](C(C)C)NC(=O)[C@H](Cc2c[nH]c3ccccc23)NC(=O)[C@H](CC(=O)O)NC(=O)[C@H](Cc2ccc(C(=O)O)cc2)NC(=O)[C@H](Cc2cnc[nH]2)NC(=O)CSC[C@@H](C(=O)N[C@@H](C)C(N)=O)NC(=O)[C@H]([C@@H](C)O)NC(=O)[C@H](C(C)C)NC1=O [Compound 1149] ({CH2CO}-H[Phe(4-COOH)]DWV[Bip]R[NMeA][dL][Orn]LVTCA-NH2; thioether N-14)
15 | 0.02 | CCC(C)[C@@H]1NC(=O)[C@H](Cc2ccc(-c3ccccc3)cc2)NC(=O)[C@H](C(C)C)NC(=O)[C@H](Cc2c[nH]c3ccccc23)NC(=O)[C@H](CC(=O)O)NC(=O)[C@H](Cc2ccc(O)cc2)NC(=O)[C@H](Cc2cc3ccccc3cn2)NC(=O)CSC[C@@H](C(=O)N[C@@H](C)C(N)=O)NC(=O)[C@H](C(C)O)NC(=O)[C@H](C(C)C)NC(=O)[C@H](CC2CCCCC2)NC(=O)[C@H](CCN)NC(=O)[C@@H](CC(C)C)NC(=O)[C@H](C)N(C)C1=O (stereo partly drawn) [Compound 2044] ({CH2CO}-[X23]YDWV[Bip][Ile(3ξ)][NMeA][dL][Dab][Cha]V[Thr(3ξ)]CA-NH2; thioether N-14)
